What all share (type): cell-based, human
In one assay the test system is B1 cell line. Briefly: cells.
In another assay the test system is MOLT-3 cell line. Briefly: cells.
Another assay concerns KOPN8 cell line. Briefly: cells.
For another assay, the system named is SEM cell line. Briefly: cells.
Assay [1] has as its system MLL-rearranged leukemia cell lines (SEM, B1, KOPN8, MOLT-3, TIB-202). Briefly: In-vitro cytotoxicity across the panel of leukemia cell lines.
In another assay the test system is TIB-202 cell line. Put plainly: cells.
The mark [2] stands for this setting: Homo sapiens, for four of five cell lines.
The mark [3] stands for this setting: Homo sapiens, all five MLL-rearranged cell lines.
The mark [4] stands for this setting: Homo sapiens, KOPN-8, in TIB-202, KOPN8, SEM, and B1 cells.

In general, IC50 refers to the concentration at which inhibition is half-maximal. Low values mean inhibition by little substance, high ones a need for much substance.

Bounds are passed on as bounds.

Consider `Nc1nc(Cl)nc2c1ncn2[C@@H]1O[C@H](CO)[C@@H](O)[C@@H]1F` [Clofarabine], for which the half-maximal inhibitory concentration (IC50) with B1 cell line (Homo sapiens, 96 h) is under 10 nM; with MOLT-3 cell line (Homo sapiens, MOLT-3, 96 h), over 10000 nM; in the assay on KOPN8 cell line (Homo sapiens, KOPN-8, 96 h), 8.7 nM; in the assay on SEM cell line (Homo sapiens, 96 h) it was 25.8 nM; in assay [1] (setting [2]), under 100 nM; in the assay on TIB-202 cell line (Homo sapiens, 96 h), under 10 nM.

For the compound `COc1cccc2c1C(=O)c1c(O)c3c(c(O)c1C2=O)C[C@@](O)(C(C)=O)C[C@@H]3O[C@H]1C[C@H](N)[C@H](O)[C@H](C)O1` [Daunorubicin], the IC50 in the assay on B1 cell line (Homo sapiens, 96 h) is 9.45 nM; in the assay with MOLT-3 cell line (Homo sapiens, MOLT-3, 96 h), under 10 nM; in the assay on KOPN8 cell line (Homo sapiens, KOPN-8, 96 h) it was under 5 nM; in the assay with SEM cell line (Homo sapiens, 96 h), under 10 nM; in assay [1] (setting [3]) it was under 1000 nM; in the assay on TIB-202 cell line (Homo sapiens, 96 h) it was 10.8 nM.

As to `CC(=O)O[C@@]12CO[C@@H]1C[C@H](O)[C@@]1(C)C(=O)[C@H](O)C3=C(C)[C@@H](OC(=O)[C@H](O)[C@@H](NC(=O)OC(C)(C)C)c4ccccc4)C[C@@](O)([C@@H](OC(=O)c4ccccc4)[C@H]21)C3(C)C` [Docetaxel], the IC50 with B1 cell line (Homo sapiens, 96 h) was 0.278 nM; in the assay with MOLT-3 cell line (Homo sapiens, MOLT-3) it was under 10 nM; with KOPN8 cell line (Homo sapiens, KOPN-8, 96 h), under 10 nM; in the assay with SEM cell line (Homo sapiens, 96 h), under 10 nM; in assay [1] (setting [4]), under 100 nM; in assay [1] (setting [3]), under 1000 nM. The compound also came in with an IC50 in the assay with TIB-202 cell line (Homo sapiens, 96 h) of 58.8 nM.

`COc1cc([C@@H]2c3cc4c(cc3[C@@H](O[C@@H]3O[C@@H]5CO[C@@H](C)O[C@H]5[C@H](O)[C@H]3O)[C@H]3COC(=O)[C@H]23)OCO4)cc(OC)c1O` [Etoposide]: the IC50 was 710 nM in the assay with B1 cell line (Homo sapiens, 96 h); 107 nM in the assay with MOLT-3 cell line (Homo sapiens, MOLT-3, 96 h); 19.7 nM in the assay with KOPN8 cell line (Homo sapiens, KOPN-8, 96 h); 92.8 nM in the assay with SEM cell line (Homo sapiens, 96 h); under 1000 nM in assay [1] (setting [3]); 456 nM in the assay with TIB-202 cell line (Homo sapiens, 96 h).

On to `Nc1nc(F)nc2c1ncn2[C@@H]1O[C@H](CO)[C@@H](O)[C@@H]1O` [Fludarabine], for which the concentration for half-maximal inhibition (IC50) is 90.9 nM in the assay on B1 cell line (Table S1, B1, 96 hours); over 10000 nM in the assay with MOLT-3 cell line (Table S1, MOLT-3, 96 hours); 70.5 nM in the assay on KOPN8 cell line (Table S1, KOPN8, 96 hours); 88.7 nM with SEM cell line (Table S1, SEM, 96 hours); under 1000 nM in assay [1] (for four of five cell lines); 73.1 nM in the assay on TIB-202 cell line (Table S1, TIB-202, 96 hours).

For the compound `Nc1ccn([C@@H]2O[C@H](CO)[C@@H](O)C2(F)F)c(=O)n1` [Gemcitabine], the half-inhibitory concentration (IC50) in the assay on B1 cell line (Homo sapiens, 96 h) was 25.7 nM; with MOLT-3 cell line (Homo sapiens, MOLT-3, 96 h), under 10 nM; in the assay on KOPN8 cell line (Homo sapiens, KOPN-8, 96 h), under 5 nM; in the assay on SEM cell line (Homo sapiens, 96 h), under 10 nM; in assay [1] (setting [3]), under 1000 nM; in assay [1] (Homo sapiens, leukemia cell lines tested, screen), under 50 nM. Further, the half-inhibitory concentration (IC50) in the assay on TIB-202 cell line (Homo sapiens, 96 h) turned out to be 56.5 nM.

Turning to `CO[C@@]12[C@H](COC(N)=O)C3=C(C(=O)C(C)=C(N)C3=O)N1C[C@@H]1N[C@@H]12` [Mitomycin C], the half-maximal inhibitory concentration (IC50) was 371 nM in the assay on B1 cell line (Homo sapiens, 96 h); 22.1 nM in the assay with MOLT-3 cell line (Homo sapiens, MOLT-3, 96 h); 59.4 nM with KOPN8 cell line (Homo sapiens, KOPN-8, 96 h); 50.4 nM in the assay on SEM cell line (Homo sapiens, 96 h); under 1000 nM in assay [1] (setting [3]); under 500 nM in assay [1] (all five MLL-rearranged cell lines). Also, the IC50 with TIB-202 cell line (Homo sapiens, 96 h) was 85.5 nM.

For `O=C1c2c(O)ccc(O)c2C(=O)c2c(NCCNCCO)ccc(NCCNCCO)c21` [Mitoxantrone], the IC50 with B1 cell line (Homo sapiens, 96 h) was under 10 nM; with MOLT-3 cell line (Homo sapiens, MOLT-3, 96 h), 342 nM; in the assay with KOPN8 cell line (Homo sapiens, KOPN-8, 96 h), under 10 nM; with SEM cell line (Homo sapiens, 96 h) it was under 10 nM; in assay [1] (setting [3]), under 1000 nM; in the assay with TIB-202 cell line (Homo sapiens, 96 h) it was under 10 nM.

For `CC(=O)O[C@H]1C(=O)[C@@]2(C)[C@H]([C@H](OC(=O)c3ccccc3)[C@]3(O)C[C@H](OC(=O)[C@H](O)[C@@H](NC(=O)c4ccccc4)c4ccccc4)C(C)=C1C3(C)C)[C@]1(OC(C)=O)CO[C@@H]1C[C@@H]2O` [Paclitaxel], the 50% inhibitory concentration (IC50) was 80.4 nM with B1 cell line (Homo sapiens, 96 h); 10000 nM in the assay on MOLT-3 cell line (Homo sapiens, MOLT-3); under 10 nM with KOPN8 cell line (Homo sapiens, KOPN-8, 96 h); under 10 nM in the assay with SEM cell line (Homo sapiens, 96 h); under 100 nM in assay [1] (setting [4]); 106 nM in the assay on TIB-202 cell line (Homo sapiens, 96 h).

In the case of `Nc1nc2[nH]cc(CCc3ccc(C(=O)N[C@@H](CCC(=O)O)C(=O)O)cc3)c2c(=O)[nH]1` [Pemetrexed], the IC50 was 671 nM with B1 cell line (Homo sapiens, 96 h); 567 nM with MOLT-3 cell line (Homo sapiens, MOLT-3, 96 h); 158 nM in the assay with KOPN8 cell line (Homo sapiens, KOPN-8, 96 h); over 10000 nM in the assay on SEM cell line (Homo sapiens, 96 h); under 1000 nM in assay [1] (setting [2]); 179 nM with TIB-202 cell line (Homo sapiens, 96 h).

As for `COc1cc([C@@H]2c3cc4c(cc3[C@@H](O[C@@H]3O[C@@H]5CO[C@@H](c6cccs6)O[C@H]5[C@H](O)[C@H]3O)[C@H]3COC(=O)[C@H]23)OCO4)cc(OC)c1O` [Teniposide], the IC50 in the assay on B1 cell line (Homo sapiens, 96 h) was 29.8 nM; in the assay on MOLT-3 cell line (Homo sapiens, MOLT-3, 96 h), 11.7 nM; with KOPN8 cell line (Homo sapiens, KOPN-8, 96 h) it was 0.18 nM; in the assay on SEM cell line (Homo sapiens, 96 h) it was 9.28 nM; in assay [1] (setting [3]) it was under 1000 nM; with TIB-202 cell line (Homo sapiens, 96 h) it was 49.1 nM.

With `CC[C@@]1(O)C(=O)OCc2c1cc1n(c2=O)Cc2cc3c(CN(C)C)c(O)ccc3nc2-1` [Topotecan], the concentration for half-maximal inhibition (IC50) was 27.6 nM in the assay on B1 cell line (Homo sapiens, 96 h); under 10 nM in the assay with MOLT-3 cell line (Homo sapiens, MOLT-3, 96 h); under 10 nM with KOPN8 cell line (Homo sapiens, KOPN-8, 96 h); under 10 nM in the assay on SEM cell line (Homo sapiens, 96 h); under 1000 nM in assay [1] (setting [3]); 45.3 nM in the assay with TIB-202 cell line (Homo sapiens, 96 h).

In the case of `C1CN1c1nc(N2CC2)nc(N2CC2)n1` [Triethylenemelamine], the 50% inhibitory concentration (IC50) is 397 nM in the assay with B1 cell line (Homo sapiens, 96 h); 260 nM in the assay with MOLT-3 cell line (Homo sapiens, MOLT-3, 96 h); 197 nM in the assay with KOPN8 cell line (Homo sapiens, KOPN-8, 96 h); 481 nM in the assay with SEM cell line (Homo sapiens, 96 h); under 1000 nM in assay [1] (Homo sapiens); 447 nM in the assay with TIB-202 cell line (Homo sapiens, 96 h).

For the compound `CC[C@]1(O)C[C@@H]2CN(CCc3c([nH]c4ccccc34)[C@@](C(=O)OC)(c3cc4c(cc3OC)N(C)[C@H]3[C@@](O)(C(=O)OC)[C@H](OC(C)=O)[C@]5(CC)C=CCN6CC[C@]43[C@@H]65)C2)C1` [Vinblastine], the IC50 with B1 cell line (Homo sapiens, 96 h) was 0.993 nM; with MOLT-3 cell line (Homo sapiens, MOLT-3) it was 851 nM; with KOPN8 cell line (Homo sapiens, KOPN-8, 96 h), under 10 nM; in the assay with SEM cell line (Homo sapiens, 96 h), 10 nM; in assay [1] (setting [4]) it was under 100 nM; in assay [1] (setting [3]) it was under 1000 nM. Moreover, the IC50 in the assay on TIB-202 cell line (Homo sapiens, 96 h) is 8.79 nM.

`CC[C@]1(O)C[C@H]2CN(CCc3c([nH]c4ccccc34)[C@@](C(=O)OC)(c3cc4c(cc3OC)N(C=O)[C@H]3[C@@](O)(C(=O)OC)[C@H](OC(C)=O)[C@]5(CC)C=CCN6CC[C@]43[C@@H]65)C2)C1` [Vincristine]: the IC50 in the assay with B1 cell line (Homo sapiens, 96 h) was 44.2 nM; in the assay on MOLT-3 cell line (Homo sapiens, MOLT-3), 10000 nM; in the assay on KOPN8 cell line (Homo sapiens, KOPN-8, 96 h), under 10 nM; in the assay on SEM cell line (Homo sapiens, 96 h) it was under 10 nM; in assay [1] (setting [4]) it was under 100 nM; in the assay with TIB-202 cell line (Homo sapiens, 96 h), 40.2 nM.
